{
  "source": "paper PMC3961306",
  "about": "“Comparison of the Cancer Gene Targeting and Biochemical Selectivities of All Targeted Kinase Inhibitors Approved for Clinical Use” (PLoS ONE, 2014)",
  "assay_in_all_cases": "Kinase profiling in a biochemical assay panel (mobility shift assays and ELISA), %-inhibition at 1 μM; selectivity entropy",
  "key": {"[1]": {"biological_target": "panel of more than 300 wild-type and mutant kinases (313 kinase panel) (Homo sapiens, UniProt Q9H4A3)", "conditions": "kinase WNK1; compound at 1 μM"}, "[2]": {"biological_target": "panel of more than 300 wild-type and mutant kinases (313 kinase panel) (Homo sapiens, UniProt P04626)"}, "[3]": {"biological_target": "panel of more than 300 wild-type and mutant kinases (313 kinase panel) (Homo sapiens, UniProt P53779)", "conditions": "kinase JNK3; compound at 1 μM"}, "[4]": {"biological_target": "T1, panel of more than 300 wild-type and mutant kinases (313 kinase panel) (Homo sapiens, UniProt P21709)", "T1 sequence (P21709 26-976)": "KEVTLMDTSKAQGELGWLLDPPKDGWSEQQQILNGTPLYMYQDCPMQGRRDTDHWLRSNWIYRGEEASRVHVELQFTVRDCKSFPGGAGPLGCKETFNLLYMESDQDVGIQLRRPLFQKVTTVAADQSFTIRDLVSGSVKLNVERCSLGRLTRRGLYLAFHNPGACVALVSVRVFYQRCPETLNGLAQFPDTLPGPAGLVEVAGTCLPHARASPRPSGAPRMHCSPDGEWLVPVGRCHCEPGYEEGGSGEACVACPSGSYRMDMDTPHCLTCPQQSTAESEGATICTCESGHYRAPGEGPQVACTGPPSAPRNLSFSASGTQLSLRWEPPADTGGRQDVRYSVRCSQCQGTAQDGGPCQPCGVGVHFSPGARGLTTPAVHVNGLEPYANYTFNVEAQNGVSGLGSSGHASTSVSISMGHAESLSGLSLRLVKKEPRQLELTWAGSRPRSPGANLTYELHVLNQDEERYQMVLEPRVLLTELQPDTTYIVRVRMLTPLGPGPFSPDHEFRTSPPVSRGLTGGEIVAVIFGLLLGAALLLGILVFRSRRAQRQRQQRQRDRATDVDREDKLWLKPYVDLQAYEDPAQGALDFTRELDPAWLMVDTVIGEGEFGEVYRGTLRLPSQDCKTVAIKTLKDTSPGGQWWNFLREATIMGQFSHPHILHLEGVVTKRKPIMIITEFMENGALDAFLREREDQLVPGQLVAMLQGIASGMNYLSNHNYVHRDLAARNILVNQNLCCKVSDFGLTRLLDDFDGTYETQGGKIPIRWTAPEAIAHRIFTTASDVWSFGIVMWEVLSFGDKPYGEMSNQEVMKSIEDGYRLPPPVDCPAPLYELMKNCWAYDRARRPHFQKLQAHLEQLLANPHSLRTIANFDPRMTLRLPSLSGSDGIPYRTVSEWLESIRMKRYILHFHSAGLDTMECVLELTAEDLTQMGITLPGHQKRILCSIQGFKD", "conditions": "kinase EPHA1; compound at 1 μM"}, "[5]": {"biological_target": "panel of more than 300 wild-type and mutant kinases (313 kinase panel) (Homo sapiens, UniProt P31751)", "conditions": "kinase AKT2; 1 μM compound"}, "[6]": {"biological_target": "T2, panel of more than 300 wild-type and mutant kinases (313 kinase panel) (Homo sapiens, UniProt Q96PF2)", "T2 sequence (Q96PF2 1-358)": "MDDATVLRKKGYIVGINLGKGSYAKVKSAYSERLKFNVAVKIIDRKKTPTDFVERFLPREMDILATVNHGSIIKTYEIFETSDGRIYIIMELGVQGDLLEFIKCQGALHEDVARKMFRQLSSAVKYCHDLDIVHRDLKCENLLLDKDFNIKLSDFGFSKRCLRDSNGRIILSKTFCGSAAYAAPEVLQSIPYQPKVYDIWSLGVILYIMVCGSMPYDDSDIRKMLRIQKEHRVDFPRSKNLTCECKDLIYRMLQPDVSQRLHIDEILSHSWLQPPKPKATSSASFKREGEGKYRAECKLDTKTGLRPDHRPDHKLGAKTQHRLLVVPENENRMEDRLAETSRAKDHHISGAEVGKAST", "conditions": "kinase TSSK2; 1 μM"}, "[7]": {"biological_target": "panel of more than 300 wild-type and mutant kinases (313 kinase panel) (Homo sapiens, UniProt P07949, G691S)"}, "[8]": {"biological_target": "panel of more than 300 wild-type and mutant kinases (313 kinase panel) (Homo sapiens, UniProt P12931)", "conditions": "kinase SRC; 1 μM"}, "[9]": {"biological_target": "T3, panel of more than 300 wild-type and mutant kinases (313 kinase panel) (Homo sapiens, UniProt Q14164)", "T3 sequence (Q14164 1-716)": "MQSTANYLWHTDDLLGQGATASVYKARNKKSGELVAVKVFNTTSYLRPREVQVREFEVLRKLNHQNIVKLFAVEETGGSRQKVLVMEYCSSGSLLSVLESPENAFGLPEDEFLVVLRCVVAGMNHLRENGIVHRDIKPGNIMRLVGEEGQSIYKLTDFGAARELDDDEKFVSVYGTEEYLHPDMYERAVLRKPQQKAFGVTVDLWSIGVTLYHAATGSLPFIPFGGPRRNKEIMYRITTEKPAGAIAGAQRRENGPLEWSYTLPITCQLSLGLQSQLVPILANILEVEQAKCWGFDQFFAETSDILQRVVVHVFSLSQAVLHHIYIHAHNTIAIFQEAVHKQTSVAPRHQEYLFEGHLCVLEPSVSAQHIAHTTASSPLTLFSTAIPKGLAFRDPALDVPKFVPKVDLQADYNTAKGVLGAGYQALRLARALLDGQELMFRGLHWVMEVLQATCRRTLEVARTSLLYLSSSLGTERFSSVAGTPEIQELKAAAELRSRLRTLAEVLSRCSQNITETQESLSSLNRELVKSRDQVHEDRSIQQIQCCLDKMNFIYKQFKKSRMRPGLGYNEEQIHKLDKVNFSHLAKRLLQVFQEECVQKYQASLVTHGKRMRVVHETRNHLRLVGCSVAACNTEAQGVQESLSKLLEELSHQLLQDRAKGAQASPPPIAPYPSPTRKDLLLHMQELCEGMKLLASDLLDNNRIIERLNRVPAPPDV", "conditions": "kinase IKKε; compound at 1 μM"}},
  "data": [
    {"smiles": "CS(=O)(=O)CCNCc1ccc(-c2ccc3ncnc(Nc4ccc(OCc5cccc(F)c5)c(Cl)c4)c3c2)o1", "note": "[lapatinib]", "values": [
      {"measurement": "%-inhibition of WNK1", "setting": "[1]", "value": -0.825, "unit": "%"},
      {"measurement": "%-inhibition of HER2", "setting": "[2]; 1 µM", "value": 85, "unit": "%"},
      {"measurement": "%-inhibition of JNK3", "setting": "[3]", "value": 11, "unit": "%"},
      {"measurement": "%-inhibition of EPHA1", "setting": "[4]", "value": 6, "unit": "%"},
      {"measurement": "%-inhibition, AKT2", "setting": "[5]", "value": 4.61, "unit": "%"},
      {"measurement": "%-inhibition of TSSK2", "setting": "[6]", "value": -7.54, "unit": "%"},
      {"measurement": "%-inhibition of RET(G691S)", "setting": "[7]; 1 µM", "value": -3, "unit": "%"},
      {"measurement": "%-inhibition of SRC", "setting": "[8]", "value": 6, "unit": "%"},
      {"measurement": "%-inhibition of IKKε", "setting": "[9]", "value": -5, "unit": "%"}
    ]},
    {"smiles": "CO[C@H]1C[C@@H]2CC[C@@H](C)[C@@](O)(O2)C(=O)C(=O)N2CCCC[C@H]2C(=O)O[C@H]([C@H](C)C[C@@H]2CC[C@@H](OCCO)[C@H](OC)C2)CC(=O)[C@H](C)/C=C(\\C)[C@@H](O)[C@@H](OC)C(=O)[C@H](C)C[C@H](C)/C=C/C=C/C=C/1C", "note": "[everolimus]", "values": [
      {"measurement": "%-inhibition of WNK1", "setting": "[1]", "value": -5, "unit": "%"},
      {"measurement": "%-inhibition of HER2", "setting": "[2]; kinase HER2, compound at 1 μM", "value": -2.5, "unit": "%"},
      {"measurement": "%-inhibition of JNK3", "setting": "[3]", "value": -4.31, "unit": "%"},
      {"measurement": "%-inhibition of EPHA1", "setting": "[4]", "value": -10, "unit": "%"},
      {"measurement": "%-inhibition, AKT2", "setting": "[5]", "value": -3.78, "unit": "%"},
      {"measurement": "%-inhibition of TSSK2", "setting": "[6]", "value": -11, "unit": "%"},
      {"measurement": "%-inhibition of RET(G691S)", "setting": "[7]; kinase RET(G691S), 1 μM", "value": -4.43, "unit": "%"},
      {"measurement": "%-inhibition of SRC", "setting": "[8]", "value": 2.64, "unit": "%"},
      {"measurement": "%-inhibition of IKKε", "setting": "[9]", "value": -10, "unit": "%"}
    ]},
    {"smiles": "CNC(=O)c1cc(Oc2ccc(NC(=O)Nc3ccc(Cl)c(C(F)(F)F)c3)c(F)c2)ccn1", "note": "[regorafenib]", "values": [
      {"measurement": "%-inhibition of WNK1", "setting": "[1]", "value": -4, "unit": "%"},
      {"measurement": "%-inhibition of HER2", "setting": "[2]; kinase HER2, compound at 1 μM", "value": 6.43, "unit": "%"},
      {"measurement": "%-inhibition of JNK3", "setting": "[3]", "value": 5, "unit": "%"},
      {"measurement": "%-inhibition of EPHA1", "setting": "[4]", "value": 55, "unit": "%"},
      {"measurement": "%-inhibition, AKT2", "setting": "[5]", "value": -4, "unit": "%"},
      {"measurement": "%-inhibition of TSSK2", "setting": "[6]", "value": -11, "unit": "%"},
      {"measurement": "%-inhibition of RET(G691S)", "setting": "[7]; kinase RET(G691S), 1 μM", "value": 103, "unit": "%"},
      {"measurement": "%-inhibition of SRC", "setting": "[8]", "value": 44, "unit": "%"},
      {"measurement": "%-inhibition of IKKε", "setting": "[9]", "value": -7, "unit": "%"}
    ]},
    {"smiles": "O=S(=O)(c1cccc2cnccc12)N1CCCNCC1", "note": "[fasudil]", "values": [
      {"measurement": "%-inhibition of WNK1", "setting": "[1]", "value": 3, "unit": "%"},
      {"measurement": "%-inhibition of HER2", "setting": "[2]; kinase HER2, compound at 1 μM", "value": 0.678, "unit": "%"},
      {"measurement": "%-inhibition of JNK3", "setting": "[3]", "value": -4, "unit": "%"},
      {"measurement": "%-inhibition of EPHA1", "setting": "[4]", "value": 0.43, "unit": "%"},
      {"measurement": "%-inhibition, AKT2", "setting": "[5]", "value": -8, "unit": "%"},
      {"measurement": "%-inhibition of TSSK2", "setting": "[6]", "value": -0.28, "unit": "%"},
      {"measurement": "%-inhibition of RET(G691S)", "setting": "[7]; kinase RET(G691S), 1 μM", "value": -0.0546, "unit": "%"},
      {"measurement": "%-inhibition of SRC", "setting": "[8]", "value": -5, "unit": "%"},
      {"measurement": "%-inhibition of IKKε", "setting": "[9]", "value": -1.77, "unit": "%"}
    ]},
    {"smiles": "Cc1cn(-c2cc(NC(=O)c3ccc(C)c(Nc4nccc(-c5cccnc5)n4)c3)cc(C(F)(F)F)c2)cn1", "note": "[nilotinib]", "values": [
      {"measurement": "%-inhibition of WNK1", "setting": "[1]", "value": -0.88, "unit": "%"},
      {"measurement": "%-inhibition of HER2", "setting": "[2]; 1 µM", "value": 4.25, "unit": "%"},
      {"measurement": "%-inhibition of JNK3", "setting": "[3]", "value": 39, "unit": "%"},
      {"measurement": "%-inhibition of EPHA1", "setting": "[4]", "value": 61, "unit": "%"},
      {"measurement": "%-inhibition, AKT2", "setting": "[5]", "value": 12, "unit": "%"},
      {"measurement": "%-inhibition of TSSK2", "setting": "[6]", "value": 2.58, "unit": "%"},
      {"measurement": "%-inhibition of RET(G691S)", "setting": "[7]; 1 µM", "value": 13, "unit": "%"},
      {"measurement": "%-inhibition of SRC", "setting": "[8]", "value": 23, "unit": "%"},
      {"measurement": "%-inhibition of IKKε", "setting": "[9]", "value": -2.79, "unit": "%"}
    ]}
  ]
}
